Laboratory results: article PMC8674134, “Safety and efficacy of avapritinib in advanced systemic mastocytosis: the phase 1 EXPLORER trial” (Nature Medicine, 2021)

Tested on: advanced systemic mastocytosis (AdvSM)
Experiment: Centrally adjudicated response by mIWG-MRT-ECNM criteria (ORR, best response, time to response, C-finding improvement)
Assay type: in vivo, human
Excerpt: The primary endpoints were MTD, RP2D and assessment of safety. Secondary endpoints included the ORR based on measurable C-finding responses per mIWG-MRT-ECNM criteria, which require 12-week confirmation of response. Responses in C-findings were centrally adjudicated by a Response Adjudication Committee (RAC) comprising a subset of study investigators (see below for further details and a list of RAC members). ORR included: CR or CRh (including complete resolution of all C-findings, elimination of marrow mast cell aggregates and serum tryptase <20 ng ml^−1); PR (resolution of ≥1 C-finding and ≥50% reduction in marrow mast cells and serum tryptase); and clinical improvement (resolution of ≥1 C-finding).
The safety population included all enrolled patients and was used to report AEs and PROs (in those who completed the questionnaire). The dose-determining population included all patients in a cohort in part 1 who received ≥21 prescribed avapritinib doses in C1 and completed follow-up through C1, or experienced DLT. The determination of the MTD and RP2D were based on the dose-determining population. […] The AdvSM safety population was also used to report AEs and OS. […] The response-evaluable population was used to report adjudicated response rates and PFS. The PK population comprised all patients with sufficient plasma concentration–time data to reliably estimate the PK parameters of avapritinib.
ORR was defined as the proportion of patients with a confirmed best response of CR, CRh, PR or clinical improvement by mIWG-MRT-ECNM consensus criteria. Time to CR/CRh/PR was defined as the time from the start of treatment to the time a CR/CRh/PR by mIWG-MRT-ECNM was first met. DOR was defined as the time from first documented response to the date of first documented progressive disease/loss of response or death due to any cause, whichever occurred first. OS was defined as the time from the start of treatment to the date of death. PFS was defined as the time from the start of treatment to the date of first documented progressive disease or death due to any cause, whichever occurred first. Progressive disease was defined per mIWG-MRT-ECNM criteria as worsening of ≥1 baseline C-finding confirmed for at least 4 weeks, or progression to acute myeloid leukemia.
Primary ORR analysis was based on RAC-adjudicated responses in the response-evaluable population. ORR was estimated using frequency, percentage and two-sided 95% CIs based on the exact binomial distribution (Clopper–Pearson). Statistical testing on binomial proportion against a null of 28% was performed using one-sided α = 0.025. Wald test P value was presented. CR + CRh + PR rate was summarized similarly as ORR. Statistical testing on binomial proportion against a null of 17% was performed using one-sided α = 0.025.

[1] = 53 response-evaluable patients, mIWG-MRT-ECNM
[2] = Prior midostaurin exposure (n = 17)
[3] = of 2 patients with C-finding at baseline, response-evaluable population (n = 53)
[4] = of 18 patients with C-finding at baseline, response-evaluable population (n = 53)
[5] = response-evaluable population (n = 53)

## Cn1cc(-c2cc3c(N4CCN(c5ncc([C@@](C)(N)c6ccc(F)cc6)cn5)CC4)ncnn3c2)cn1 [avapritinib]
53 response-evaluable patients
  Clinical improvement rate: 6%
  Partial remission (PR) rate: 34%
[1]
  CR or CRh rate: 36%
  Overall response rate (ORR; CR/CRh/PR/CI): 75%
ASM (n = 3)
  Best response CI (clinical improvement): 0 n (%)
  Best response CR: 0 n (%)
  Best response CR or CRh: 2 (67) n (%)
  Best response CRh: 2 (67) n (%)
  Best response NE (not evaluable): 0 n (%)
  Best response PD: 0 n (%)
  Best response PR: 1 (33) n (%)
  Best response SD: 0 n (%)
  ORR (CR + CRh + PR + CI): 3 (100) n (%)
All AdvSM (n = 53)
  Best response CI (clinical improvement): 3 (6) n (%)
  Best response CR: 8 (15) n (%)
  Best response CR or CRh: 19 (36) n (%)
  Best response CRh: 11 (21) n (%)
  Best response NE (not evaluable): 1 (2) n (%)
  Best response PD: 0 n (%)
  Best response PR: 18 (34) n (%)
  Best response SD: 12 (23) n (%)
  ORR (CR + CRh + PR + CI): 40 (75) n (%)
Any prior therapy (n = 32)
  Best response CI (clinical improvement): 2 (6) n (%)
  Best response CR: 4 (13) n (%)
  Best response CR or CRh: 9 (28) n (%)
  Best response CRh: 5 (16) n (%)
  Best response NE (not evaluable): 1 (3) n (%)
  Best response PD: 0 n (%)
  Best response PR: 11 (34) n (%)
  Best response SD: 9 (28) n (%)
  ORR (CR + CRh + PR + CI): 22 (69) n (%)
MCL (n = 13)
  Best response CI (clinical improvement): 2 (15) n (%)
  Best response CR: 3 (23) n (%)
  Best response CR or CRh: 3 (23) n (%)
  Best response CRh: 0 n (%)
  Best response NE (not evaluable): 0 n (%)
  Best response PD: 0 n (%)
  Best response PR: 4 (31) n (%)
  Best response SD: 4 (31) n (%)
  ORR (CR + CRh + PR + CI): 9 (69) n (%)
Midostaurin naïve (n = 36)
  Best response CI (clinical improvement): 2 (6) n (%)
  Best response CR: 6 (17) n (%)
  Best response CR or CRh: 16 (44) n (%)
  Best response CRh: 10 (28) n (%)
  Best response NE (not evaluable): 0 n (%)
  Best response PD: 0 n (%)
  Best response PR: 12 (33) n (%)
  Best response SD: 6 (17) n (%)
  ORR (CR + CRh + PR + CI): 30 (83) n (%)
No prior therapy (n = 21)
  Best response CI (clinical improvement): 1 (5) n (%)
  Best response CR: 4 (19) n (%)
  Best response CR or CRh: 10 (48) n (%)
  Best response CRh: 6 (29) n (%)
  Best response NE (not evaluable): 0 n (%)
  Best response PD: 0 n (%)
  Best response PR: 7 (33) n (%)
  Best response SD: 3 (14) n (%)
  ORR (CR + CRh + PR + CI): 18 (86) n (%)
[2]
  Best response CI (clinical improvement): 1 (6) n (%)
  Best response CR: 2 (12) n (%)
  Best response CR or CRh: 3 (18) n (%)
  Best response CRh: 1 (6) n (%)
  Best response NE (not evaluable): 1 (6) n (%)
  Best response PD: 0 n (%)
  Best response PR: 6 (35) n (%)
  Best response SD: 6 (35) n (%)
  ORR (CR + CRh + PR + CI): 10 (59) n (%)
SM-AHN (n = 37)
  Best response CI (clinical improvement): 1 (3) n (%)
  Best response CR: 5 (14) n (%)
  Best response CR or CRh: 14 (38) n (%)
  Best response CRh: 9 (24) n (%)
  Best response NE (not evaluable): 1 (3) n (%)
  Best response PD: 0 n (%)
  Best response PR: 13 (35) n (%)
  Best response SD: 8 (22) n (%)
  ORR (CR + CRh + PR + CI): 28 (76) n (%)
All starting doses
  Median time to achieve CR/CRh: 9 months
All starting doses, range, 2–27 months
  Median time to achieve PR or better (CR/CRh/PR): 2 months
midostaurin-naïve patients (6/36)
  CR rate: 17%
midostaurin-naïve patients (10/36)
  CRh rate: 28%
midostaurin-naïve patients (16/36)
  CR/CRh rate: 44%
midostaurin-naïve patients (30/36)
  ORR: 83%
Of 1 patient with C-finding at baseline, response-evaluable population (n = 53)
  Patients with clinical improvement in C-finding: thrombocytopenia, transfusion dependent: 0 (0) n (%)
[3]
  Patients with clinical improvement in C-finding: anemia, transfusion dependent: 1 (50) n (%)
  Patients with clinical improvement in C-finding: pleural effusions: 2 (100) n (%)
Of 3 patients with C-finding at baseline, response-evaluable population (n = 53)
  Patients with clinical improvement in C-finding: neutropenia: 0 (0) n (%)
Of 6 patients with C-finding at baseline, response-evaluable population (n = 53)
  Patients with clinical improvement in C-finding: direct bilirubin >1.5 × ULN: 1 (17) n (%)
Of 7 patients with C-finding at baseline, response-evaluable population (n = 53)
  Patients with clinical improvement in C-finding: hypoalbuminemia: 4 (57) n (%)
Of 10 patients with C-finding at baseline, response-evaluable population (n = 53)
  Patients with clinical improvement in C-finding: ascites: 4 (40) n (%)
Of 15 patients with C-finding at baseline, response-evaluable population (n = 53)
  Patients with clinical improvement in C-finding: anemia, transfusion independent: 3 (20) n (%)
[4]
  Patients with clinical improvement in C-finding: ALP >2.5 × ULN: 12 (67) n (%)
  Patients with clinical improvement in C-finding: thrombocytopenia, transfusion independent: 4 (22) n (%)
Of 28 patients with C-finding at baseline, response-evaluable population (n = 53)
  Patients with clinical improvement in C-finding: splenomegaly ≥5 cm: 24 (86) n (%)
Patients with co-mutations in S/A/R genes
  ORR: 74%
Patients with prior midostaurin exposure (10/17)
  ORR: 59%
Patients without S/A/R co-mutations
  ORR: 77%
Prior midostaurin exposure (1/17)
  CRh rate: 6%
Prior midostaurin exposure (2/17)
  CR rate: 12%
Prior midostaurin exposure (3/17)
  CR/CRh rate: 18%
[5]
  Median time to clinical improvement: ALP >2.5 × ULN: 2.9 months
  Median time to clinical improvement: anemia, transfusion dependent: 0.3 months
  Median time to clinical improvement: anemia, transfusion independent: 3.7 months
  Median time to clinical improvement: ascites: 7.4 months
  Median time to clinical improvement: direct bilirubin >1.5 × ULN: 8.3 months
  Median time to clinical improvement: hypoalbuminemia: 3.3 months
  Median time to clinical improvement: pleural effusions: 1.9 months
  Median time to clinical improvement: splenomegaly ≥5 cm: 1.9 months
  Median time to clinical improvement: thrombocytopenia, transfusion independent: 3.1 months
Starting doses of 200, 300 or 400 mg (≥200 mg QD)
  Median time to PR or better (CR/CRh/PR): 2 months
